Laboratory results taken from patent publication US20020155172A1, “Methods and compounds for decreasing cell toxicity or death” (priority 2000, published 2002).

Tests used:
[1] = system: HeLa cells transfected with a Q79-GFP construct; assay: Polyglutamine-induced cell death in HeLa cells; type: cell-based
Experimental: FIG. 4A is two graphs showing the effect of Congo red, tetracyclines, and sulfated polyanions on polyglutamine-induced cell death in, each graph representing a separate experiment. HeLa cells transfected with a Q79-GFP construct were treated with 100 μM of minocycline (mino), Chrysamine G (CG), Rolitetracycline (Ro), iota carrageenan (iota), dextran 500 (dextran), or Congo red (CR), six hours after transfection. The amount of cell death was determined 48 hours after transfection by morphological criteria as previously described (Sanchez et al., supra).
In a cell expressing Q79-GFP polypeptides, polyglutamine aggregates are formed and the cell dies by apoptosis (Sanchez, supra). Cell viability was determined by morphological criteria characteristic of apoptosis, including cell blebbing, shrinking. Total cell lysates and tissue homogenates were obtained using Buffer A: 1% triton in PBS, containing 10 μg/ml DNAse and protease inhibitors; leupeptin 20 μg/ml, aprotinin 20 u/ml, and PMSF 100 mM. The proteins were separated by 12% SDS/PAGE and transferred to PVDF Immobilon membrane (Millipore, Inc). Antibodies used included rabbit polyclonal antibodies; EM48 (Li et al., Mol. Neurobiol. 20:111-124, 2000) anti-heat shock proteins 40 and 70 (Stressgen, Co.), and rat monoclonal anti-caspase-8 antibody.
These effects were determined by visual inspection of GFP-positive cells under an inverted fluorescence microscope. In addition, the occurrence of apoptosis of these transfected cell samples was confirmed by staining the cells with trypan blue, propidium iodide, or Hoescht 33342 to examine the cellular or nuclear morphology.
Compounds that disrupt other types of aggregates, for example, amyloid fibril aggregates were tested for their ability to disrupt pre-formed polyglutamine aggregates. HeLa Cells were transfected with a Q79-GFP construct. Six hours later, Iota-carrageenan, dextran, minocycline, rolitetracycline, and Chrysamine G (1 nM to 100 μM) were each incubated with the cells. Seventy-two hours post-transfection, the cells were evaluated for the occurrence of cell death, by visual inspection under an inverted fluorescence microscope.

[2] = system: Q79-Q79 interaction (Q79-ECFP/EYFP-Q79); assay: FRET-Q79 assay; type: biochemical; conditions: aggregates treated with 100 Congo red; 488 nm excitation, 527 nm emission
Description: To rule out the possibility that Congo red merely disrupts large polyglutamine aggregates without affecting oligomeric polyglutamine interaction that may be invisible to fluorescence microscopy, we designed a FRET-Q79 assay. In this assay, the expression constructs EYFP-Q79 (enhanced yellow fluorescent protein fused to a polypeptide containing 79 polyglutamines) and Q79-ECFP (enhanced cyan fluorescent protein fused to a polypeptide containing 79 polyglutamines) were co-transfected into HeLa cells. The EYFP-HAQ79 was made by ligation of a SacI/Notl digested insert from HA-Q79 CMX (Sanchez et al., 1999, supra) into the plasmid CFP-C1, described by Sanchez et al. (supra) after Sac1 digestion and blunting. […]
The lysates were passed through a needle to ensure release of polyglutamine inclusions from the nuclei. […] The fluorescence resonance energy transfer (FRET) was determined from polyglutamine oligomers formed in Q79-ECFP/EYFP-Q79 expressing cells upon addition of PBS or Congo red. Specifically, the interaction of the tagged Q79 polypeptides was detected by immunofluorescence at 488 nm excitation and 527 nm emission for FRET using a Wallach plate reader, and the ratio of the immunofluorescence was determined. Immunofluorescence levels were also detected for each ECFP and EYFP independent of the effect of Congo red on fluorescence emission wavelengths.

[3] = system: R62 mice; assay: Survival; type: in vivo; conditions: infused intraperitoneally
Description: FIG. 10G is a graph of the effect of PBS (vehicle; delivered intraperitoneally) or Congo red, infused intraperitoneally, on survival of HD transgenic mice.
In addition, the ability of Congo red to inhibit the formation as well as to disrupt preformed polyglutamine oligomers allowed us to examine the role of polyglutamine aggregates in neuronal dysfunction and degeneration characteristic of polyglutamine expansion diseases. In these studies, we used the animal model of Huntington's disease (R62), which expresses the truncated form of huntingtin with 139 CAG repeats Mangiarini et al. (supra). We took advantage of our finding that in addition to inhibiting polyglutamine oligomerization, Congo red also disrupts pre-formed oligomers, thus allowing assessment of the impact of Congo red on disease progression after formation of polyglutamine aggregates and the onset of symptoms. R62 transgenic mice and CBAxC57B1/6 F1 wild type littermates were obtained from Jackson Laboratories (Bar Harbor, Me.) at the age of five weeks. […]
The initial abnormal neurological signs of R62 mice include dyskinesia of the hindlimbs when mice were suspended by the tail, and irregular gait. […] The effect of Congo red on motor performance in R62 mice was also assessed by rotarod studies. […]

With `Nc1c(/N=N/c2ccc(-c3ccc(/N=N/c4cc(S(=O)(=O)O)c5ccccc5c4N)cc3)cc2)cc(S(=O)(=O)O)c2ccccc12` [Congo red, diphenyldiazo-bis-alpha-napthylaminesulfonate] the “cell death, as indicated by morphology” value ([1]; HA-tagged Q79-GFP, caspase-8 experiment) was “significantly inhibited ATP loss and cell death”, the “Polyglutamine-induced Cell Death” value ([1]; Q79-GFP, compound added six hours after transfection, 1 nM to 100 μM (FIG. 4A: 100 μM), seventy-two hours post-transfection) was “+ (Each + indicates approximately 20% cell death.)” and the FRET ratio [2] was “significantly reduced”. For the same compound, the mean survival length [3] was 106 days.
